Laboratory results published in paper PMC12195250, “Synthesis, Biological Evaluation, Molecular Dynamics, and QM-MM Calculation of Spiro-Acridine Derivatives Against Leishmaniasis” (Microorganisms, 2025).
≈ marks a conversion by molar mass, not a printed value. Read-outs that look alike come from different tables or passages of the source.

Tests used:
[1] = system: human red blood peripheral cells (O+); experiment: Hemocompatibility (hemolysis) in red blood cells; assay type: cell-based; conditions: 1 h at 37 °C
Method: The hemocompatibility of the spiro-acridine derivatives was determined using human red blood peripheral cells (O+) from healthy adults. The erythrocytes were diluted in phosphate-buffered saline (PBS) to a concentration of 5% in an 80 µL suspension and subsequently incubated with 20 µL of different concentrations of spiro-acridine derivatives and Amphotericin B® (400, 200, 100, 50, 25, 12,5, 6,25 and 3,12 μg/mL). Afterward, the samples were incubated for 1 h at 37 °C in a B.O.D incubator, and the reaction was stopped by adding 200 μL of PBS (1.5 mM KH2PO4, 8.1 mM Na2HPO4, 136.9 mM NaCl, and 2.6 mM KCl, pH 7.2). The samples were centrifuged at 2000 rpm for 10 min, at room temperature. The supernatants were collected and subjected to spectrophotometry using a spectrophotometer (model Biosystems ELx800, Curitiba, PR, Brazil) at 540 nm. The hemolysis percentage was determined as [(Abssam − Abscon)/(Abstot − Abscon) × 100], where Abssam refers to the absorbance of the sample, Abscon to the absorbance of the blank control (without compounds), and Abstot to the absorbance of total hemolysis (obtained by replacing the sample solution with an equal volume of Milli-Q water). The results were expressed as average hemolytic concentration (HC50), considering the positive control as 100% hemolysis.

[2] = system: L. infantum promastigotes (Strain MHOM/BR/70/BH46); experiment: Anti-promastigote effect, Neubauer chamber counting; assay type: cell-based, Leishmania infantum; conditions: 72 h incubation, read-out: L. infantum IC50PRO
Method: (§1) The promastigote cultures of L. infantum (Strain MHOM/BR/70/BH46) and L. amazonensis (Strain MHOM/BR/PH8) were kept in Schneider medium (Sigma-Aldrich, St. Louis, MO, USA) supplemented with 20% fetal bovine serum (FBS) and 1% streptomycin/penicillin in a B.O.D. incubator (J. Prolab, model JP. 100 LBCM/CPAM) at 26 °C. The promastigote strains were used in the exponential growth phase in all stages for experimental purposes.
(§2) The Neubauer chamber method was used to assess the inhibitory concentrations of the synthesized spiro-acridines capable of eliminating 50% of the promastigotes in cultures of L. amazonensis and L. infantum (IC50) strains. Promastigotes from both species were collected, counted, and diluted in Schneider’s medium (Sigma-Aldrich, St. Louis, MO, USA) supplemented with 20% fetal bovine serum (FBS) at a final concentration of 1 × 10^6 cells/mL. The evaluated promastigotes were then exposed to different concentrations of the tested compounds (10, 5, 2.5, 1.25, and 0.625 μg/mL). The positive control used the commercial drug Amphotericin B®, while the negative control consisted of promastigotes incubated in Schneider’s medium alone. After 72 h of incubation at 25 °C, culture growth was observed by counting the viable cells using a Neubauer chamber and calculated using the following Equation (1): No. Leishmania/mL = No. of cells counted × No. of Neubauer chamber(1) quadrants × the dilution used × 10^4 (Neubauer chamber correction factor)
(§3) The concentration parameter that inhibits 50% of parasite growth (IC50) was used to estimate the growth inhibition of the promastigote species of Leishmania sp. Thus, IC50 was determined by linear regression analysis with SPSS 8.0 software for Windows. Each test was performed in two independent experiments, with different cultures and in technical triplicate.

[3] = system: L. amazonensis promastigotes (Strain MHOM/BR/PH8); experiment: as above; assay type: cell-based, Leishmania amazonensis; conditions: 72 h incubation, read-out: L. amazonensis IC50PRO
Method: as §1, §2, §3

[4] = system: L. infantum promastigote forms; set-up: method as in PMID 34311084; conditions: cited from earlier work
[5] = Cytotoxic effect in J774 macrophage cultures, MTT; assay type: cell-based; conditions: mouse, J774A.1 macrophages, read-out: CC50 (50% cytotoxic concentration in J774 macrophage)
Method: J774A.1 macrophages (ATCC TIB-67) were kept cryopreserved in a Falcon tube containing 5 mL of DMEM (Dulbecco’s modified Eagle medium) culture medium (Gibco®), supplemented with 10% inactivated fetal bovine serum, 1% non-essential amino acids, and 1% gentamicin sulfate. The tube was centrifuged at 200 rpm for 10 min. Afterward, the supernatant was discarded, and the cells were resuspended in the culture medium and transferred to a culture bottle kept in an incubator at 37 °C with 5% CO2. The assays were carried out in triplicate using a 96-well plate to evaluate the cytotoxic effect of the selected spiro-acridine compounds on J774 macrophage cultures. The compounds were diluted and seeded at predetermined concentrations (32, 16, 8, 4, and 2 μg/mL), parallel to the distribution of 1.0 × 10^5 J774 macrophages per well. The plate was incubated for two hours in a 5% CO2 incubator at 37 °C. Only the cells were incubated in the negative control without the tested molecules. In contrast, the positive control was performed by incubating the macrophages with the commercial drug Amphotericin B®. Later, 10 μL of the MTT reagent was added per well, and the cultures were re-incubated for 4 h. Finally, 50 μL of DMSO was added to each well, and the absorbance was read on a SpectraMAX GeminiXS plate spectrophotometer (Molecular Devices LLC, San Jose, CA, USA) at a wavelength of 570 nm. […]

[6] = system: L. amazonensis axenic amastigotes; experiment: Anti-amastigote effect on axenic amastigotes, MTT; assay type: cell-based, Leishmania amazonensis
Method: The amastigote forms of L. amazonensis were maintained under cryopreservation until they were transferred to an NNN medium (Novy–MacNeal–Nicolle) and incubated at 26 °C until the parasites reached the log growth phase. Subsequently, the suspension was transferred to Schneider culture medium (Sigma-Aldrich, St. Louis, MO, USA), supplemented with 20% inactivated fetal bovine serum and 0.2% gentamicin sulfate at 26 °C, causing the parasites to return to the log growth phase. The cultures were then maintained at 37 °C, producing a growth curve and the formation of the axenic amastigote strains.
The concentrations of the compounds AMTAC-02 and ACMD-03 capable of eliminating 50% of the cells in the cultures of L. amazonensis amastigotes (IC50) were determined using the MTT [3-(4,5-dimethylthiazol-2-yl)-2,5-diphenyltetrazolium bromide] (Sigma-Aldrich) reagent. In a 96-well plate, the assay was initiated by diluting both compounds to concentrations of 2, 4, 8, 16, and 32 μg/mL and 2.0 × 10^5 axenic amastigotes per well. The plates were incubated at 37 °C for 24 h. Then, 10 μL of MTT was added per well, and the cultures were re-incubated for 4 h. Subsequently, 50 μL of dimethyl sulfoxide was added to each well to solubilize the formazan crystals formed. The absorbances were measured using a SpectraMAX GeminiXS plate spectrophotometer (Molecular Devices LLC) at a wavelength of 570 nm. The negative control consisted of untreated cells, while the positive control was assessed by incubating the axenic amastigotes with the reference drug Amphotericin B® [13].

[7] = system: L. amazonensis promastigotes; set-up: method as in PMID 33765552; conditions: cited from earlier work
[8] = system: L. brasiliensis axenic amastigotes; set-up: method as in PMID 33168414; conditions: cited from earlier work
[9] = system: L. brasiliensis promastigotes; set-up: method as in PMID 33168414; conditions: cited from earlier work

Q: With `N#CC1=CC2(c3ccccc3Nc3ccccc32)N(c2ccccc2)C1=O` [ACMD-01, (E)5′-oxo-1′-phenyl-1′, 5′-dihydro-10H-spiro{acridine-9,2′-pyrrole]-4′-carbonitrile] as the compound, how does the “HC50 (concentration capable of promoting 50% hemolysis)” value [1] read?
A: The value was greater than 400 µM.

Q: And the IC50 ([2]; Leishmania infantum)?
A: Its IC50 is 3.9 µM.

Q: Which “HC50 (concentration capable of promoting 50% hemolysis)” value [1] does the source give for `COc1ccc(N2C(=O)C(C#N)=CC23c2ccccc2Nc2ccccc23)cc1` [ACMD-06, (E)1′-(4-methoxyphenyl)-5′-oxo-1′, 5′-dihydro-10H-spiro{acridine-9,2′-pyrrole]-4′-carbonitrile] here?
A: The value was greater than 400 µM.

Q: And the IC50 [2]?
A: The IC50 was 3.5 µM.

Q: And the IC50 [3]?
A: The IC50 was 235 µM.

Q: Which “HC50 (concentration capable of promoting 50% hemolysis)” value [1] does the source give for `N#CC1=CC2(c3ccccc3Nc3ccccc32)N(/N=C/c2ccccc2)C1=O` [AMTAC-01, (E)-1′-(benzylideneamino)-5′-oxo-1′,5′-dihydro-10H-spiro[acridine-9,2′-pyrrole]-4′-carbonitrile] here?
A: Its value is greater than 400 µM.

Q: What about the “IC50 against the promastigote forms” value [4] of the same compound?
A: Its value is 2.039 µg/mL (≈ 5.42 µM).

Q: And the IC50 ([2]; Leishmania infantum)?
A: Its IC50 is 6.27 µM.

Q: What about the IC50 ([3]; Leishmania amazonensis) of the same compound?
A: Its IC50 is 1.23 µM.

Q: With `N#CC1=CC2(c3ccccc3Nc3ccccc32)N(/N=C/c2ccc(Cl)cc2)C1=O` [AMTAC-06, (E)1-(4-chlorobenzylideneamino)-5-oxo-1,5-dihydro-10H-spiro[acridine-9,2-pyrrole]-4-carbonitrile] as the compound, how does the “HC50 (concentration capable of promoting 50% hemolysis)” value [1] read?
A: The value was greater than 400 µM.

Q: And the IC50 [2]?
A: The IC50 was 13.8 µM.

Q: What about the IC50 [3] of the same compound?
A: The IC50 was 0.75 µM.

Q: For `C[C@@H]1[C@H](O)[C@@H](C)/C=C/C=C/C=C/C=C/C=C/C=C/C=C/[C@H](O[C@@H]2O[C@H](C)[C@@H](O)[C@H](N)[C@@H]2O)C[C@@H]2O[C@](O)(C[C@@H](O)C[C@@H](O)[C@H](O)CC[C@@H](O)C[C@@H](O)CC(=O)O[C@H]1C)C[C@H](O)[C@H]2C(=O)O` [ANFO B, Amphotericin B, reference compound], which “HC50 (concentration capable of promoting 50% hemolysis)” value [1] is on record?
A: Its value is 24.25 µM.

Q: What about the IC50 ([2]; Leishmania infantum) of the same compound?
A: Its IC50 is 0.05 µM.

Q: And the IC50 ([3]; Leishmania amazonensis)?
A: Its IC50 is 1.53 µM.

Q: And the CC50 at 2 h [5]?
A: The CC50 at 2 h was 3.09 µM.

Q: What about the “SI (selectivity index)” value ([6]; J774 macrophage CC50 versus L. amazonensis axenic amastigote IC50AMA) of the same compound?
A: The value was 2.8.

Q: And the IC50 ([6]; Leishmania amazonensis, 24 h, L. amazonensis axenic amastigotes, MTT)?
A: The IC50 was 1.08 µM.

Q: With `CC1=CC(=O)[C@H]2C(C)(C)CCC[C@]2(C)[C@@]1(O)CCc1ccoc1` [SOL, solidagenone] as the compound, how does the IC50 [7] read?
A: Its IC50 is 34.5 µM.

Q: With cordiaquinone E [CORe] as the compound, how does the IC50 [8] read?
A: The IC50 was 2.89 ± 0.11 µM.

Q: What about the IC50 [9] of the same compound?
A: Its IC50 is 4.5 ± 0.3 µM.
